# Columns and labels:
# [1] = system: patients with primary focal segmental glomerulosclerosis (FSGS); test: DUET phase 2 trial: change in urine protein to creatinine (UP/C) ratio, proteinuria; assay type: in vivo, human; details: for Complete remission (UP/C ratio <0.3 g/g), number of patients: 8-week double-blind period; for Reduction from Baseline in UP/C ratio (geometric least squares mean reduction) / Reduction from Baseline in UP/C ratio, intent-to-treat analysis: baseline to week 8; for Reduction from Baseline in UP/C ratio, intent-to-treat analysis: missing data imputed as zero change; for Proportion of patients who achieved UP/C ratio ≤1.5 g/g with >40% reduction: week 8; for percentage of patients achieving UP/C ratio ≤1.5 g/g with >40% reduction during open-label period: 8 weeks to 48 weeks
# From the text: DUET trial is a phase 2, double-blind, randomized, active-control, dose-escalation study (NCT01613118) that evaluates the efficacy and safety of sparsentan as a treatment for primary focal segmental glomerulosclerosis (FSGS), a rare disorder characterized by massive proteinuria and progressive loss of kidney function. Patients (ranging in age from 8 years to 75 years) with biopsy-proven primary FSGS (or documentation of a genetic mutation in a podocyte protein associated with the disease) having baseline urine protein to creatinine (“UP/C”) ratios greater than […] and estimated glomerular filtration rates greater than 30 ml/min were eligible for the study. The inclusion criteria also included a mean seated blood pressure >[…] and <145/96 mmHg for patients aged 18 years or older, or, for patients aged <18 years of age, a mean seated blood pressure of >90/60 mmHg and <95th percentile for age, gender, and height. The inclusion criteria included an allowance for a stable dose of immunosuppressive medication for ≥1 month. […] Patients who signed consent and met all inclusion and exclusion criteria during the screening phase underwent a 2-week angiotensin receptor blocker (ARB) and angiotensin converting enzyme (ACE) inhibitor washout period before being randomly assigned to one of the three escalating dose cohorts receiving sparsentan (200 mg/day; 400 mg/day; and 800 mg/day) or a fixed maximal dose of active control (the ARB irbesartan, at 300 mg/day) in a 3:1 ratio within each cohort. The primary endpoint was the change in UP/C ratio (determined as a measure of urinary protein excretion) from baseline. […] After the completion of an 8-week double-blind period, the patients continued sparsentan treatment on their assigned doses in an open-label extension for 136 additional weeks. Irbesartan control arm patients were offered sparsentan treatment at the dose they would have received according to the double-blind dose group in which they were enrolled. The analysis of the primary endpoint included 96 randomized patients who received at least one dose of the study drug, and had both baseline and week 8 UP/C ratio values (i.e., had completed 8 weeks of double-blind treatment). The pre-specified analysis order was (1) all sparsentan doses vs. irbesartan; (2) sparsentan 800- and 400-mg doses vs. irbesartan; (3) sparsentan 400-mg dose vs. irbesartan; (4) sparsentan 800-mg dose vs. irbesartan. Baseline or week 8 UP/C ratio data were missing for 9 sparsentan-treated patients and 4 irbesartan-treated patients. An intent-to-treat analysis was conducted, in which the missing data were imputed as zero change in UP/C ratio. […] The results across sparsentan dose cohorts were similar to those observed without imputed data (Table 4).
# [2] = DUET trial: eGFR and serum markers; assay type: in vivo, human; details: double-blind period
# From the text: DUET trial is a phase 2, double-blind, randomized, active-control, dose-escalation study (NCT01613118) that evaluates the efficacy and safety of sparsentan as a treatment for primary focal segmental glomerulosclerosis (FSGS), a rare disorder characterized by massive proteinuria and progressive loss of kidney function. Patients (ranging in age from 8 years to 75 years) with biopsy-proven primary FSGS (or documentation of a genetic mutation in a podocyte protein associated with the disease) having baseline urine protein to creatinine (“UP/C”) ratios greater than 1 g/g and estimated glomerular filtration rates greater than 30 ml/min were eligible for the study. The inclusion criteria also included a mean seated blood pressure >[…] and <145/96 mmHg for patients aged 18 years or older, or, for patients aged <18 years of age, a mean seated blood pressure of >90/60 mmHg and <95th percentile for age, gender, and height. The inclusion criteria included an allowance for a stable dose of immunosuppressive medication for ≥1 month. Exclusion criteria included secondary FSGS; significant medical conditions related to cardiac, hepatic, or immune function; body mass index >[…] for adults or in the 99th percentile plus 5 for pediatric patients; hematocrit <27% or hemoglobin <[…]; serum potassium >5.5 mEq/L; and women who were pregnant, breastfeeding, or of child-bearing potential who were unwilling to use two methods of contraception.
# Patients who signed consent and met all inclusion and exclusion criteria during the screening phase underwent a 2-week angiotensin receptor blocker (ARB) and angiotensin converting enzyme (ACE) inhibitor washout period before being randomly assigned to one of the three escalating dose cohorts receiving sparsentan (200 mg/day; 400 mg/day; and 800 mg/day) or a fixed maximal dose of active control (the ARB irbesartan, at 300 mg/day) in a 3:1 ratio within each cohort. The primary endpoint was the change in UP/C ratio (determined as a measure of urinary protein excretion) from baseline. The proportion of patients achieving UP/C ratio ≤1.5 g/g with >40% reduction in UP/C ratio at Week 8, a modified responder analysis, was evaluated as secondary endpoint.
# [3] = Baseline, sparsentan 200-800 mg/day (n=64), irbesartan 300 mg/day (n=32)
# [4] = Baseline, sparsentan 400-800 mg/day (n=51), irbesartan 300 mg/day (n=25)
# [5] = Week 8, sparsentan 200-800 mg/day (n=64), irbesartan 300 mg/day (n=32)
# [6] = Week 8, sparsentan 400-800 mg/day (n=51), irbesartan 300 mg/day (n=25)
# [7] = dose cohort 200 mg sparsentan, irbesartan 300 mg/day
# [8] = dose cohort 400 mg and 800 mg sparsentan, irbesartan 300 mg/day
# [9] = dose cohort 400 mg sparsentan, irbesartan 300 mg/day
# [10] = dose cohort 800 mg sparsentan, irbesartan 300 mg/day
# [11] = dose cohort All (sparsentan 200-800 mg/day; irbesartan 300 mg/day)
# [12] = sparsentan 200-800 mg/day (n=64), irbesartan 300 mg/day (n=32)
# [13] = sparsentan 400-800 mg/day (n=51), irbesartan 300 mg/day (n=25)
structure (smiles),measurement,setting,value
"CCCCC1=NC2(CCCC2)C(=O)N1Cc1ccc(-c2ccccc2-c2nnn[nH]2)cc1 [Irbesartan, irbesartan, reference compound]","Complete remission (UP/C ratio <0.3 g/g), number of patients",[1],in no irbesartan-treated patients
same,"UP/C ratio, maximum",[1]; [3],10.73 g/g
same,"UP/C ratio, mean (SD)",[1]; [3],4.017 (2.6717) g/g
same,"UP/C ratio, median",[1]; [3],3.265 g/g
same,"UP/C ratio, minimum",[1]; [3],0.88 g/g
same,"UP/C ratio, maximum",[1]; [4],10.73 g/g
same,"UP/C ratio, mean (SD)",[1]; [4],3.816 (2.7160) g/g
same,"UP/C ratio, median",[1]; [4],2.970 g/g
same,"UP/C ratio, minimum",[1]; [4],0.88 g/g
same,"UP/C ratio, maximum",[1]; [5],10.19 g/g
same,"UP/C ratio, mean (SD)",[1]; [5],3.164 (2.2713) g/g
same,"UP/C ratio, median",[1]; [5],2.405 g/g
same,"UP/C ratio, minimum",[1]; [5],0.43 g/g
same,"UP/C ratio, maximum",[1]; [6],10.19 g/g
same,"UP/C ratio, mean (SD)",[1]; [6],2.990 (2.3598) g/g
same,"UP/C ratio, median",[1]; [6],2.390 g/g
same,"UP/C ratio, minimum",[1]; [6],0.43 g/g
same,Reduction from Baseline in UP/C ratio (geometric least squares mean reduction),[1]; [7],15.0%
same,Reduction from Baseline in UP/C ratio (geometric least squares mean reduction),[1]; [8],19.0%
same,Reduction from Baseline in UP/C ratio (geometric least squares mean reduction),"[1]; dose cohort 400 mg and 800 mg sparsentan, irbesartan 300 mg/day, listed as irbesartan",19%
same,Reduction from Baseline in UP/C ratio (geometric least squares mean reduction),[1]; [9],28.1%
same,Reduction from Baseline in UP/C ratio (geometric least squares mean reduction),[1]; [10],9.3%
same,Reduction from Baseline in UP/C ratio (geometric least squares mean reduction),[1]; [11],18.5%
same,Reduction from Baseline in UP/C ratio (geometric least squares mean reduction),"[1]; dose cohort All (sparsentan 200-800 mg/day; irbesartan 300 mg/day), listed as irbesartan",19%
same,"Reduction from Baseline in UP/C ratio, intent-to-treat analysis",[1]; dose cohort 200 mg,13.2%
same,"Reduction from Baseline in UP/C ratio, intent-to-treat analysis",[1]; dose cohort 400 mg,23.6%
same,"Reduction from Baseline in UP/C ratio, intent-to-treat analysis",[1]; dose cohort 400 mg and 800 mg,15.9%
same,"Reduction from Baseline in UP/C ratio, intent-to-treat analysis",[1]; dose cohort 800 mg,9.7%
same,"Reduction from Baseline in UP/C ratio, intent-to-treat analysis",[1]; dose cohort All,15.7%
same,"% Change from Baseline to Week 8 in UP/C ratio, geometric LSmeans",[1]; [12],−18.5%
same,"% Change from Baseline to Week 8 in UP/C ratio, geometric LSmeans",[1]; [13],−19.0%
same,Proportion of patients who achieved UP/C ratio ≤1.5 g/g with >40% reduction,[1]; dose cohort 200 mg,0.0%
same,Proportion of patients who achieved UP/C ratio ≤1.5 g/g with >40% reduction,[1]; dose cohort 400 mg,17.7%
same,Proportion of patients who achieved UP/C ratio ≤1.5 g/g with >40% reduction,[1]; dose cohort 400 mg and 800 mg,12.0%
same,Proportion of patients who achieved UP/C ratio ≤1.5 g/g with >40% reduction,[1]; dose cohort 800 mg,0.0%
same,Proportion of patients who achieved UP/C ratio ≤1.5 g/g with >40% reduction,[1]; dose cohort All,9.4%
same,Proportion of patients who achieved UP/C ratio ≤1.5 g/g with >40% reduction,"[1]; dose cohort All, listed as irbesartan",9%
same,change in N-terminal pro-B-type natriuretic peptide,[2],no significant change or difference
same,change in albumin,[2],no significant change or difference
same,change in eGFR,[2],no significant change or difference
same,change in serum potassium,[2],no significant change or difference
"CCCCC1=NC2(CCCC2)C(=O)N1Cc1ccc(-c2ccccc2S(=O)(=O)Nc2noc(C)c2C)c(COCC)c1 [Sparsentan, 4′-((2-butyl-4-oxo-1,3-diazaspiro[4.4]non-1-en-3-yl)methyl)-N-(4,5-dimethylisoxazol-3-yl)-2′-(ethoxymethyl)-[1,1′-biphenyl]-2-sulfonamide]","Complete remission (UP/C ratio <0.3 g/g), number of patients",[1],4 patients
same,percentage of patients achieving UP/C ratio ≤1.5 g/g with >40% reduction during open-label period,[1]; patients continuing to receive sparsentan,increased
same,percentage of patients achieving UP/C ratio ≤1.5 g/g with >40% reduction during open-label period,[1]; patients switched from irbesartan to sparsentan,increased
same,"UP/C ratio, maximum",[1]; [3],18.66 g/g
same,"UP/C ratio, mean (SD)",[1]; [3],4.707 (3.7810) g/g
same,"UP/C ratio, median",[1]; [3],3.620 g/g
same,"UP/C ratio, minimum",[1]; [3],0.43 g/g
same,"UP/C ratio, maximum",[1]; [4],18.66 g/g
same,"UP/C ratio, mean (SD)",[1]; [4],4.824 (4.0506) g/g
same,"UP/C ratio, median",[1]; [4],3.530 g/g
same,"UP/C ratio, minimum",[1]; [4],0.43 g/g
same,"UP/C ratio, maximum",[1]; [5],14.47 g/g
same,"UP/C ratio, mean (SD)",[1]; [5],3.300 (3.5719) g/g
same,"UP/C ratio, median",[1]; [5],1.980 g/g
same,"UP/C ratio, minimum",[1]; [5],0.12 g/g
same,"UP/C ratio, maximum",[1]; [6],14.47 g/g
same,"UP/C ratio, mean (SD)",[1]; [6],3.208 (3.4738) g/g
same,"UP/C ratio, median",[1]; [6],1.900 g/g
same,"UP/C ratio, minimum",[1]; [6],0.12 g/g
same,Reduction from Baseline in UP/C ratio (geometric least squares mean reduction),[1]; [7],33.1%
same,Reduction from Baseline in UP/C ratio (geometric least squares mean reduction),[1]; [8],47.4%
same,Reduction from Baseline in UP/C ratio (geometric least squares mean reduction),"[1]; dose cohort 400 mg and 800 mg sparsentan, irbesartan 300 mg/day, listed as sparsentan",47%
same,Reduction from Baseline in UP/C ratio (geometric least squares mean reduction),[1]; [9],52.7%
same,Reduction from Baseline in UP/C ratio (geometric least squares mean reduction),[1]; [10],41.3%
same,Reduction from Baseline in UP/C ratio (geometric least squares mean reduction),[1]; [11],44.8%
same,Reduction from Baseline in UP/C ratio (geometric least squares mean reduction),"[1]; dose cohort All (sparsentan 200-800 mg/day; irbesartan 300 mg/day), listed as sparsentan",45%
same,"Reduction from Baseline in UP/C ratio, intent-to-treat analysis",[1]; dose cohort 200 mg,33.1%
same,"Reduction from Baseline in UP/C ratio, intent-to-treat analysis",[1]; dose cohort 400 mg,50.5%
same,"Reduction from Baseline in UP/C ratio, intent-to-treat analysis",[1]; dose cohort 400 mg and 800 mg,44.8%
same,"Reduction from Baseline in UP/C ratio, intent-to-treat analysis",[1]; dose cohort 800 mg,38.4%
same,"Reduction from Baseline in UP/C ratio, intent-to-treat analysis",[1]; dose cohort All,42.7%
same,"% Change from Baseline to Week 8 in UP/C ratio, geometric LSmeans",[1]; [12],−44.8%
same,"% Change from Baseline to Week 8 in UP/C ratio, geometric LSmeans",[1]; [13],−47.4%
same,Proportion of patients who achieved UP/C ratio ≤1.5 g/g with >40% reduction,[1]; dose cohort 200 mg,15.4%
same,Proportion of patients who achieved UP/C ratio ≤1.5 g/g with >40% reduction,[1]; dose cohort 400 mg,38.1%
same,Proportion of patients who achieved UP/C ratio ≤1.5 g/g with >40% reduction,[1]; dose cohort 400 mg and 800 mg,31.4%
same,Proportion of patients who achieved UP/C ratio ≤1.5 g/g with >40% reduction,[1]; dose cohort 800 mg,26.7%
same,Proportion of patients who achieved UP/C ratio ≤1.5 g/g with >40% reduction,[1]; dose cohort All,28.1%
same,Proportion of patients who achieved UP/C ratio ≤1.5 g/g with >40% reduction,"[1]; dose cohort All, listed as sparsentan",28%
same,change in N-terminal pro-B-type natriuretic peptide,[2],no significant change or difference
same,change in albumin,[2],no significant change or difference
same,change in eGFR,[2],no significant change or difference
same,change in serum potassium,[2],no significant change or difference
